The results in this text go back to ChEMBL document CHEMBL2069225, “Design, synthesis and molecular docking studies of sinomenine derivatives” (Bioorg Med Chem Lett, 2012).

This test relates to RAW264.7. The test can be described thus: Inhibition of NFkappaB in LPS-challenged mouse RAW264.7 cells assessed as ratio of NFkappaB transcriptional activity to thymidine kinase transcriptional activity at 100 uM incubated for 30 mins prior to LPS-challenge measured after 6 hrs by dual luciferase reporter gene assay (reference value: 5.18+/-0.98). In kind it is cell-based. For orientation: In a reporter assay the amount or activity of a reporter protein is the signal.
For `COC1=C[C@@H]2[C@@H]3Cc4ccc(OC)c(OCc5ccc([N+](=O)[O-])cc5)c4[C@]2(CCN3C)CC1=O`, the Ratio was 4.37.
As for `COC1=C[C@@H]2[C@@H]3Cc4ccc(OC)c(OCc5cn(Cc6cccc(Br)c6)nn5)c4[C@]2(CCN3C)CC1=O`, the figure is 2.46; as for `COC1=C[C@@H]2[C@@H]3Cc4ccc(OC)c(OCc5cn(Cc6ccc(C)cc6)nn5)c4[C@]2(CCN3C)CC1=O`, 3.37; as for `COC1=C[C@@H]2[C@@H]3Cc4ccc(OC)c(OCc5cccc([N+](=O)[O-])c5)c4[C@]2(CCN3C)CC1=O`, 4.18.
As for `COC1=C[C@@H]2[C@@H]3Cc4ccc(OC)c(OCc5ccc(Br)cc5)c4[C@]2(CCN3C)CC1=O`, the Ratio is 4.82.
In the case of `COC1=C[C@@H]2[C@@H]3Cc4ccc(OC)c(OCc5cn(Cc6ccc(OC)cc6)nn5)c4[C@]2(CCN3C)CC1=O`, the Ratio is 3.12.
For the molecule `COC1=C[C@@H]2[C@@H]3Cc4ccc(OC)c(OCc5cn(Cc6c(Cl)cccc6Cl)nn5)c4[C@]2(CCN3C)CC1=O`, the Ratio came out at 3.44.
For `COC1=C[C@@H]2[C@@H]3Cc4ccc(OC)c(OCc5ccccc5C)c4[C@]2(CCN3C)CC1=O`, the Ratio was found to be 4.91.
Next, `COC1=C[C@@H]2[C@@H]3Cc4ccc(OC)c(OCc5cn(Cc6ccccc6C#N)nn5)c4[C@]2(CCN3C)CC1=O`: 1.96.
As to `COC1=C[C@@H]2[C@@H]3Cc4ccc(OC)c(OCc5cccc(F)c5)c4[C@]2(CCN3C)CC1=O`, the Ratio is 4.53.
Next, `COC1=C[C@@H]2[C@@H]3Cc4ccc(OC)c(OCc5ccc(C)cc5)c4[C@]2(CCN3C)CC1=O`: 5.24; `COC1=C[C@@H]2[C@@H]3Cc4ccc(OC)c(OCc5ccccc5[N+](=O)[O-])c4[C@]2(CCN3C)CC1=O`: 4.7; `COC1=C[C@@H]2[C@@H]3Cc4ccc(OC)c(OCc5cccc(Br)c5)c4[C@]2(CCN3C)CC1=O`: 4.51.
As for `COC1=C[C@@H]2[C@@H]3Cc4ccc(OC)c(OCc5cn(Cc6cccc(F)c6)nn5)c4[C@]2(CCN3C)CC1=O`, the figure is 3.04; as for `COC1=C[C@@H]2[C@@H]3Cc4ccc(OC)c(OCc5cn(Cc6ccc(F)cc6)nn5)c4[C@]2(CCN3C)CC1=O`, 1.98.
As for `COC1=C[C@@H]2[C@@H]3Cc4ccc(OC)c(OCc5cn(Cc6ccccc6F)nn5)c4[C@]2(CCN3C)CC1=O`, the figure is 3.13; as for `COC1=C[C@@H]2[C@@H]3Cc4ccc(OC)c(O)c4[C@]2(CCN3C)CC1=O`, 4.41; as for `COC1=C[C@@H]2[C@@H]3Cc4ccc(OC)c(OCc5cn(Cc6ccc(Br)cc6)nn5)c4[C@]2(CCN3C)CC1=O`, 4.19.
Take `COC1=C[C@@H]2[C@@H]3Cc4ccc(OC)c(OCc5cn(Cc6ccccc6C)nn5)c4[C@]2(CCN3C)CC1=O`: the Ratio turned out to be 3.
On to `COC1=C[C@@H]2[C@@H]3Cc4ccc(OC)c(OCc5cn(Cc6ccccc6)nn5)c4[C@]2(CCN3C)CC1=O`, for which the Ratio is 1.8.
As for `COC1=C[C@@H]2[C@@H]3Cc4ccc(OC)c(OCc5cn(Cc6cccc(C#N)c6)nn5)c4[C@]2(CCN3C)CC1=O`, the figure is 2.86; as for `COC1=C[C@@H]2[C@@H]3Cc4ccc(OC)c(OCc5cn(Cc6cccc([N+](=O)[O-])c6)nn5)c4[C@]2(CCN3C)CC1=O`, 3.17; as for `COC1=C[C@@H]2[C@@H]3Cc4ccc(OC)c(OCc5ccccc5C#N)c4[C@]2(CCN3C)CC1=O`, 5.09.
As for `COC1=C[C@@H]2[C@@H]3Cc4ccc(OC)c(OCc5cn(Cc6ccc(Cl)cc6Cl)nn5)c4[C@]2(CCN3C)CC1=O`, the figure is 2.74; as for `COC1=C[C@@H]2[C@@H]3Cc4ccc(OC)c(OCc5cn(Cc6ccc([N+](=O)[O-])cc6)nn5)c4[C@]2(CCN3C)CC1=O`, 3.63.
In the case of `COC1=C[C@@H]2[C@@H]3Cc4ccc(OC)c(OCc5ccccc5Br)c4[C@]2(CCN3C)CC1=O`, the Ratio was determined as 5.03.
Turning to `COC1=C[C@@H]2[C@@H]3Cc4ccc(OC)c(OCc5cn(Cc6ccccc6Cl)nn5)c4[C@]2(CCN3C)CC1=O`, the Ratio turned out to be 2.39.
As for `COC1=C[C@@H]2[C@@H]3Cc4ccc(OC)c(OCc5cn(Cc6ccc(C#N)cc6)nn5)c4[C@]2(CCN3C)CC1=O`, the figure is 3.61.
As for `COC1=C[C@@H]2[C@@H]3Cc4ccc(OC)c(OCc5ccc(F)cc5)c4[C@]2(CCN3C)CC1=O`, the figure is 4.22; as for `COC1=C[C@@H]2[C@@H]3Cc4ccc(OC)c(OCc5cn(Cc6ccc(Cl)cc6)nn5)c4[C@]2(CCN3C)CC1=O`, 2.22; as for `COC1=C[C@@H]2[C@@H]3Cc4ccc(OC)c(OCc5cccc(C)c5)c4[C@]2(CCN3C)CC1=O`, 4.71.
For `COC1=C[C@@H]2[C@@H]3Cc4ccc(OC)c(OCc5cn(Cc6ccccc6[N+](=O)[O-])nn5)c4[C@]2(CCN3C)CC1=O`, the Ratio was determined as 2.32.
Take `COC1=C[C@@H]2[C@@H]3Cc4ccc(OC)c(OCc5cn(Cc6ccccc6Br)nn5)c4[C@]2(CCN3C)CC1=O`: the Ratio is 2.08.
As for `COC1=C[C@@H]2[C@@H]3Cc4ccc(OC)c(OCc5cn(Cc6cccc(Cl)c6)nn5)c4[C@]2(CCN3C)CC1=O`, the figure is 2.88; as for `COC1=C[C@@H]2[C@@H]3Cc4ccc(OC)c(OCc5cccc(C#N)c5)c4[C@]2(CCN3C)CC1=O`, 4.28.
`COC1=C[C@@H]2[C@@H]3Cc4ccc(OC)c(OCc5cn(Cc6ccc(C(C)(C)C)cc6)nn5)c4[C@]2(CCN3C)CC1=O`: the Ratio stood at 3.26.
Next, `COC1=C[C@@H]2[C@@H]3Cc4ccc(OC)c(OCc5cn(Cc6cccc(C)c6)nn5)c4[C@]2(CCN3C)CC1=O`: 2.98; `COC1=C[C@@H]2[C@@H]3Cc4ccc(OC)c(OCc5ccccc5F)c4[C@]2(CCN3C)CC1=O`: 4.71; `COC1=C[C@@H]2[C@@H]3Cc4ccc(OC)c(OCc5ccc(OC)cc5)c4[C@]2(CCN3C)CC1=O`: 4.85.
